# Laboratory results reported in US11136409B2, “Compositions and methods for identification, assessment, prevention, and treatment of AML using USP10 biomarkers and modulators” (Dana-Farber Cancer Institute, Inc., priority 2016, dated 2021).
# pIC50: −log10 of the molar value. Read-outs that look alike come from different tables or passages of the source.
# Tests used:
# Ba/F3-FLT3-ITD cells = assay: Immunoblot of FLT3 / Beclin-1 in Ba/F3-FLT3-ITD cells; assay type: cell-based, murine; conditions: for FLT3 protein levels: immunoblot, Ba/F3-FLT3-ITD cells
# Excerpt: The following antibodies were purchased from Cell Signaling Technology (Danvers, Mass.): total AKT (rabbit, #9272) and total p44/42 MAPK (Erk1/2) (3A7) (mouse, #9107) were used at 1:1000 dilution. Anti-GAPDH (D16H-11) XP (R) (rabbit mAb, #5174) was used at 1:1000 dilution. Beclin-1 (rabbit, #3738) was used at 1:1000. USP10 (D7A5) (rabbit, #8501) was used at 1:1000 dilution. P53 (rabbit, #9282) was used at 1:1000 dilution. β-tubulin (rabbit, #2146s) was used 1:1000.
# FLT3/Flk-2 (C-20) (sc-479) and Ub (P4D1) (mouse, sc-8017) were purchased from Santa Cruz Biotechnology, Inc. (Dallas, Tex.) and used at 1:1000 dilution for immunoblotting. Anti-pTyr (mouse, clone 4G10) was purchased from Upstate Biotechnology (Lake Placid, N.Y.) and was used at 1:1000 dilution. Anti-HAUSP/USP7 antibody (rabbit, ab4080) and anti-ubiquitin antibody (rabbit, ab7780) were purchased from Abcam (Cambridge, Mass.) and used at 1:1000 dilution.
# Protein lysate preparation, immunoblotting, and immunoprecipitation were carried out as previously described in Weisberg et al. (2002) Cancer Cell 1:433-443.
# P31 = assay: Anti-proliferation, 24 hr treatment (CellTiter-Glo); assay type: cell-based, human; conditions: read-out: Anti-proliferation IC50
# Excerpt: (§1) Nomo-1, P31-FUJ, and NB4 were obtained from Dr. Gary Gilliland. MV4, 11 cells were obtained from Dr. Anthony Letai. Hel, K562, THP, U937, TF-1 and K052 cells were purchased from the American Type Culture Collection (ATCC) (Manassas, Va., USA). […] Cell lines were submitted for cell line authentication and were authenticated within 6 months of manuscript preparation through cell line short tandem repeat (STR) profiling (DDC Medical, Fairfield, Ohio and Molecular Diagnostics Laboratory, Dana Farber Cancer Institute). […] PBMCs were generously provided by Dr. Steven Treon and Dr. Guang Yang.
# (§2) The CellTiter-Glo® assay (Promega, Madison, Wis.) was used for proliferation studies and carried out according to manufacturer instructions. Cell viability is reported as percentage of control (untreated) cells, and error bars represent the standard error of the mean for each data point.
# NOMO-1 = assay: as above; assay type: cell-based, human; conditions: read-out: Anti-proliferation IC50
# Excerpt: as §1, §2
# HEL = assay: as above; assay type: cell-based, human; conditions: read-out: Anti-proliferation IC50
# Excerpt: as §1, §2
# TF-1 = assay: as above; assay type: cell-based, human; conditions: read-out: Anti-proliferation IC50
# Excerpt: as §1, §2
# OCI-AML5 = assay: as above; assay type: cell-based, human; conditions: read-out: Anti-proliferation IC50
# Excerpt: as §1, §2
# NB4-luc+ = assay: as above; assay type: cell-based, human; conditions: read-out: Anti-proliferation IC50
# Excerpt: as §1, §2
# MOLM14 = assay: as above; assay type: cell-based, human; conditions: read-out: Anti-proliferation IC50
# Excerpt: as §1, §2
# MOLM13-luc+ = assay: as above; assay type: cell-based, human; conditions: read-out: Anti-proliferation IC50
# Excerpt: as §1, §2
# U937 = assay: as above; assay type: cell-based, human; conditions: read-out: Anti-proliferation IC50
# Excerpt: as §1, §2
# MV4,11 = assay: as above; assay type: cell-based, human; conditions: read-out: Anti-proliferation IC50
# Excerpt: as §1, §2
# K052 = assay: as above; assay type: cell-based, human; conditions: read-out: Anti-proliferation IC50
# Excerpt: as §1, §2
# K562 = assay: as above; assay type: cell-based, human; conditions: read-out: Anti-proliferation IC50
# Excerpt: as §1, §2
# PBMCs = assay: Treatment of PBMCs from healthy donors with USP10-targeting inhibitors; assay type: cell-based, human
# Excerpt: as §1, §2
# USP7 = USP7 (Homo sapiens, UniProt Q93009); assay: USP7 IC50 of HBX19818 analogs (Table 9); assay type: biochemical; conditions: read-out: USP7 IC50 +/− SEM
# Chain of USP7 (Q93009 whole entry): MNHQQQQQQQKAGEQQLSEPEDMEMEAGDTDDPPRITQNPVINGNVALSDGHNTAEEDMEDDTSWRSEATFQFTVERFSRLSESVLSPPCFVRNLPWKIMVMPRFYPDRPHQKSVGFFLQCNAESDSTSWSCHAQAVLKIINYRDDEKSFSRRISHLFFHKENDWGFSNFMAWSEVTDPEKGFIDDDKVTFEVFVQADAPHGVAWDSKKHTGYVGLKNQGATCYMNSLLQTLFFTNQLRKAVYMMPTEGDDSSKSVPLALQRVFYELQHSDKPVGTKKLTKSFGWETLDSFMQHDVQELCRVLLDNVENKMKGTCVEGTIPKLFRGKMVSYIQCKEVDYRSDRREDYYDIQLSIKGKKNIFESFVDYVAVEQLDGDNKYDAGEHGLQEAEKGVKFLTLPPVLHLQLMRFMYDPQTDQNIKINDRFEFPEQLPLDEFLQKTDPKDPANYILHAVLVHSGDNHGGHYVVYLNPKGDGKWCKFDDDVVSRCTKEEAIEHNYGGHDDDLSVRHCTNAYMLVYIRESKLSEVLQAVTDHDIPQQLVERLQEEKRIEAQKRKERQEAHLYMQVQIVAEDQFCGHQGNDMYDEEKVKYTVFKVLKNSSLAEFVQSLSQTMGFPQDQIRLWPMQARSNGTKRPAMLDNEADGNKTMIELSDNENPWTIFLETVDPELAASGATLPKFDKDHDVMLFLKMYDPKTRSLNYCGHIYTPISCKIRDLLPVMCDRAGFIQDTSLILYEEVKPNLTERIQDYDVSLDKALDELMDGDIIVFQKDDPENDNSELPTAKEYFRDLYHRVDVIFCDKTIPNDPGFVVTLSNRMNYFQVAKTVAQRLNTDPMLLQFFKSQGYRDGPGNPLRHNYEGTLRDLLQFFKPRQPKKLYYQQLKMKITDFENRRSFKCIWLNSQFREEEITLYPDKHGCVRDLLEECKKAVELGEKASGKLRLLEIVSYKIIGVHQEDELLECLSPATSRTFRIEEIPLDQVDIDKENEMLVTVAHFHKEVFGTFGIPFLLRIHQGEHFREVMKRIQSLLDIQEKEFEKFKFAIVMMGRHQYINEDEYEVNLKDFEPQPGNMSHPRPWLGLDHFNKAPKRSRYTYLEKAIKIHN
# [1] = 24 hr treatment, P31 (FLT3 wt or null)
# [2] = 24 hr treatment, NOMO-1 (FLT3 wt or null)
# [3] = 24 hr treatment, HEL (FLT3 wt or null)
# [4] = 24 hr treatment, TF-1 (FLT3 null)
# [5] = 24 hr treatment, OCI-AML5 (FLT3 wt or null)
# [6] = 24 hr treatment, NB4-luc+ (FLT3 wt or null)
# [7] = 24 hr treatment, MOLM14 (FLT3-ITD)
# [8] = 24 hr treatment, MOLM13-luc+ (FLT3-ITD)
# [9] = 24 hr treatment, U937 (FLT3 wt or null)
# [10] = 24 hr treatment, MV4,11 (FLT3-ITD)
# [11] = 24 hr treatment, K052 (FLT3 wt or null)
# [12] = 24 hr treatment, K562 (FLT3 wt or null)
# [13] = 24 hr assay, PBMC#1, read-out: IC50 (+/−S.D.) PBMC#1
# [14] = 24 hr assay, PBMC#2, read-out: IC50 (+/−S.D.) PBMC#2
# [15] = 72 hr assay, PBMC#1, read-out: IC50 (+/−S.D.) PBMC#1
# [16] = 72 hr assay, PBMC#2, read-out: IC50 (+/−S.D.) PBMC#2
SMILES,FLT3 protein levels (Ba/F3-FLT3-ITD cells),pIC50 (P31; [1]),pIC50 (NOMO-1; [2]),pIC50 (HEL; [3]),pIC50 (TF-1; [4]),pIC50 (OCI-AML5; [5]),pIC50 (NB4-luc+; [6]),pIC50 (MOLM14; [7]),pIC50 (MOLM13-luc+; [8]),pIC50 (U937; [9]),"pIC50 (MV4,11; [10])",pIC50 (K052; [11]),pIC50 (K562; [12]),pIC50 (PBMCs; [13]),pIC50 (PBMCs; [14]),pIC50 (PBMCs; [15]),pIC50 (PBMCs; [16]),pIC50 (USP7),other results
O=C(NCCCN1CCN(Cc2ccccc2)CC1)c1ccc2nc3c(c(Cl)c2c1)CCCC3 [C598-0563],induce loss of FLT3 at similar concentrations,4.97,4.97,4.71,5.00,4.77,4.87,5.00,5.06,4.86,5.01,4.84,4.80,4.64,4.35,4.81,5.10,4.30,
CCCN(CCC)CCCNC(=O)c1ccc2c(Cl)c3c(nc2c1)CCCC3 [C598-0466],induces FLT3 degradation at lower concentrations,4.86,5.08,4.77,4.97,5.07,4.99,5.28,5.54,4.89,5.39,4.94,4.88,4.98,4.98,5.32,5.51,5.44,
CCN(CCCNC(=O)c1ccc2nc3c(c(Cl)c2c1)CCC3)Cc1ccccc1 [C673-0105],,4.54,4.90,4.46,4.90,4.71,4.61,5.00,5.10,4.79,5.12,4.63,4.63,4.76,4.76,5.00,5.14,< 4.00,
"CN(CCCNC(=O)c1ccc2nc3c(c(Cl)c2c1)CCCC3)Cc1ccccc1 [HBX19818, reference compound]",loss of FLT3 protein,,,,,,,,,,,,,,,,,,"Protein levels of Beclin-1 and FLT3 (Ba/F3-FLT3-ITD cells; 20 μM): strongly decreased; pIC50 (P31; Homo sapiens, 24 h): 4.74; pIC50 (NOMO-1; Homo sapiens, NOMO-1, 24 h): 4.79; pIC50 (HEL; Homo sapiens, HEL, 24 h): 4.59; pIC50 (TF-1; Homo sapiens, TF-1, 24 h): 4.89; pIC50 (OCI-AML5; Homo sapiens, OCI-AML-5, 24 h): 4.75; pIC50 (NB4-luc+; Homo sapiens, 24 h): 4.79; pIC50 (MOLM14; Homo sapiens, MOLM-14, 24 h): 5.02; pIC50 (MOLM13-luc+; Homo sapiens, 24 h): 5.36; pIC50 (U937; Homo sapiens, U-937, 24 h): 4.68; pIC50 (MV4,11; Homo sapiens, MV4-11, 24 h): 5.09; pIC50 (K052; Homo sapiens, K052, 24 h): 4.78; pIC50 (K562; Homo sapiens, K562, 24 h): 4.73; pIC50 (PBMCs; Homo sapiens, PBMC, 24 h, read-out: IC50 (+/−S.D.) PBMC#1): 4.59; pIC50 (PBMCs; Homo sapiens, PBMC, 24 h, read-out: IC50 (+/−S.D.) PBMC#2): 4.62; pIC50 (PBMCs; Homo sapiens, PBMC, 72 h, read-out: IC50 (+/−S.D.) PBMC#1): 4.91; pIC50 (PBMCs; Homo sapiens, PBMC, 72 h, read-out: IC50 (+/−S.D.) PBMC#2): 5.14"
